Results as given in US20090137549A1, “Novel compounds useful for the treatment of degenerative & inflamatory diseases” (priority 2006, published 2009).

Target: PDE1A (Homo sapiens, UniProt P54750)
Test: PDE1A dose response, Cyclic Nucleotide Phosphodiesterase Assay Kit from Biomol (colorimetric)
Format: biochemical
Conditions: purified PDE1A enzyme, 100 μM cAMP
Excerpt: For the dose response and further screening, we used the Cyclic Nucleotide
Phosphodiesterase Assay Kit from Biomol, a colorimetric, non-radioactive assay. The basis for the assay is the cleavage of cAMP by PDE1A. The 5′AMP is further cleaved into the nucleoside and phosphate by the enzyme 5′-nucleotidase (catnr KI-307). The phosphate released due to enzymatic cleavage is quantified using BIOMOL GREEN™ reagent (catnr AK-111) in a modified Malachite Green assay^1,2. A PDE1A inhibitor will result in a decrease of the signal.
For the enzymatic reaction a mix of 25 μL with purified PDE1A enzyme, 100 μM cAMP, 5′Nucleotidase and the compound is made in a clear 384-plate. The reaction buffer is Tris 20 mM pH 7.4, 4 μg/mL calmodulin, 3 mM MgCl2, 1.5 mM CaCl2, 0.2 mg/mL BSA and 0.001% Brij-35. After an incubation of 45 minutes at 37° C., the reaction is stopped by the addition of 50 μL BIOMOL GREEN™ reagent. After 30 minutes incubation at room temperature, the readout is performed on the Envision (absorption at 615 nm).
All compounds are tested in duplicate starting from […] followed by a 1/3 serial dilution, 8 points (20 μM-6.67 μM-2.22 μM-740 nM-247 nM-82 nM-27 nM-9 nM) in a final concentration of 1% DMSO. As the positive dose response control compound Vardenafil is used. For the calculation of z′ and PIN values 10 μM Vardenafil is used as positive control (100% inhibition) and 1% DMSO as negative control (0% inhibition).
The following compounds have been or can be prepared according to the synthetic methods described above. For the purpose of Table 7 below, PDE1A activity of each compound, which can be determined using the assay methods described herein, is expressed as follows: […]

Compound	IC50 [nM]
CC(C)(C)n1ncc2c(=O)[nH]c(C3CN(Cc4nc5ccccc5[nH]4)C3)nc21 [Example 175, 6-(1-((1H-Benzo[d]imidazol-2-yl)methyl)azetidin-3-yl)-1-tert-butyl-1H-pyrazolo[3,4-d]pyrimidin-4(5H)-one]	1000 to 1500
O=C(N1CCOCC1)N1CC(c2nc3c(cnn3C3CCCCC3)c(=O)[nH]2)C1 [Example 94, 1-cyclohexyl-6-(1-(morpholine-4-carbonyl)azetidin-3-yl)-1H-pyrazolo[3,4-d]pyrimidin-4(5H)-one]	501 to 1000
CN(C)c1ccc(C(=O)N2CCCC(c3nc4c(cnn4C4CCCCC4)c(=O)[nH]3)C2)cc1 (stereo not shown) [Example 60, 1-cyclohexyl-6-(1-(4-(dimethylamino)benzoyl)piperidin-3-yl)-1H-pyrazolo[3,4-d]pyrimidin-4(5H)-one]	101 to 500
COc1ccccc1C(=O)N1CCCC(c2nc3c(cnn3C3CCCCC3)c(=O)[nH]2)C1 (stereo not shown) [Example 48, 1-cyclohexyl-6-(1-(2-methoxybenzoyl)piperidin-3-yl)-1H-pyrazolo[3,4-d]pyrimidin-4(5H)-one]	101 to 500
O=c1[nH]c(C2CN(c3ncc(-c4ccccc4)o3)C2)nc2c1cnn2C1CCCCC1 [Example 136, 1-cyclohexyl-6-(1-(5-phenyloxazol-2-yl)azetidin-3-yl)-1H-pyrazolo[3,4-d]pyrimidin-4(5H)-one]	101 to 500
CCc1nn(C2CCCCC2)c2nc(C3CN(C(=O)Nc4ccccc4OC(F)F)C3)[nH]c(=O)c12 [Example 114, 3-(1-cyclohexyl-3-ethyl-4-oxo-4,5-dihydro-1H-pyrazolo[3,4-d]pyrimidin-6-yl)-N-(2-(difluoromethoxy)phenyl)azetidine-1-carboxamide]	501 to 1000
Cc1nn(C2CCCCC2)c2nc(C3CCCN(S(=O)(=O)Cc4ccccc4)C3)[nH]c(=O)c12 (stereo not shown) [Example 103, 6-(1-(benzylsulfonyl)piperidin-3-yl)-1-cyclohexyl-3-methyl-1H-pyrazolo[3,4-d]pyrimidin-4(5H)-one]	1000 to 1500
COc1cccc(C(=O)N2CCCC(c3nc4c(c(C)nn4C4CCCCC4)c(=O)[nH]3)C2)c1 (stereo not shown) [Example 71, 1-cyclohexyl-6-(1-(3-methoxybenzoyl)piperidin-3-yl)-3-methyl-1H-pyrazolo[3,4-d]pyrimidin-4(5H)-one]	101 to 500
O=c1[nH]c(C2CN(c3nc(CN4CCOCC4)cs3)C2)nc2c1cnn2C1CCCCC1 [Example 142, 1-cyclohexyl-6-(1-(4-(morpholinomethyl)thiazol-2-yl)azetidin-3-yl)-1H-pyrazolo[3,4-d]pyrimidin-4(5H)-one]	101 to 500
COc1ccc(C(=O)N2CCCC(c3nc4c(c(C)nn4C4CCCCC4)c(=O)[nH]3)C2)cc1 (stereo not shown) [Example 77, 1-cyclohexyl-6-(1-(4-methoxybenzoyl)piperidin-3-yl)-3-methyl-1H-pyrazolo[3,4-d]pyrimidin-4(5H)-one]	101 to 500
O=C(NCCCN1CCOCC1)N1CC(c2nc3c(cnn3C3CCCCC3)c(=O)[nH]2)C1 [Example 88, 3-(1-cyclohexyl-4-oxo-4,5-dihydro-1H-pyrazolo[3,4-d]pyrimidin-6-yl)-N-(3-morpholinopropyl)azetidine-1-carboxamide]	501 to 1000
Cc1nn(C2CCCCC2)c2nc(C3CCCN(C(=O)c4ccsc4)C3)[nH]c(=O)c12 (stereo not shown) [Example 97, 1-cyclohexyl-3-methyl-6-(1-(thiophene-3-carbonyl)piperidin-3-yl)-1H-pyrazolo[3,4-d]pyrimidin-4(5H)-one]	1000 to 1500
Cc1nn(C2CCCCC2)c2nc(C3CCCN(C(=O)c4cccc5c4OC(F)(F)O5)C3)[nH]c(=O)c12 (stereo not shown) [Example 58, 1-cyclohexyl-6-(1-(2,2-difluorobenzo[d][1,3]dioxole-4-carbonyl)piperidin-3-yl)-3-methyl-1H-pyrazolo[3,4-d]pyrimidin-4(5H)-one]	101 to 500
Cc1nn(C2CCCCC2)c2nc(C3CCCN(C(=O)c4ccccc4)C3)[nH]c(=O)c12 (stereo not shown) [Example 89, 6-(1-benzoylpiperidin-3-yl)-1-cyclohexyl-3-methyl-1H-pyrazolo[3,4-d]pyrimidin-4(5H)-one]	501 to 1000

Other lines, results leading:

IC50 [nM]	Compound
1 to 100	CC(=O)c1ccc(N2CC(c3nc4c(cnn4C4CCCCC4)c(=O)[nH]3)C2)cc1 [Example 147, 6-(1-(4-acetoylphenyl)azetidin-3-yl)-1-cyclohexyl-1H-pyrazolo[3,4-d]pyrimidin-4(5H)-one]
1 to 100	Cc1cc(N2CC(c3nc4c(cnn4C4CCCCC4)c(=O)[nH]3)C2)ccc1[N+](=O)[O-] [Example 149, 1-cyclohexyl-6-(1-(3-methyl-4-nitrophenyl)azetidin-3-yl)-1H-pyrazolo[3,4-d]pyrimidin-4(5H)-one]
1 to 100	CC(C)(C)n1ncc2c(=O)[nH]c(C3CN(c4nc5ccccc5[nH]4)C3)nc21 [Example 128, 6-(1-(1H-benzo[d]imidazol-2-yl)azetidin-3-yl)-1-tert-butyl-1H-pyrazolo[3,4-d]pyrimidin-4(5H)-one]
1 to 100	CC(C)(C)n1ncc2c(=O)[nH]c(C3CN(C(=O)Nc4ccc(F)cc4)C3)nc21 [Example 16, 3-(1-tert-butyl-4-oxo-4,5-dihydro-1H-pyrazolo[3,4-d]pyrimidin-6-yl)-N-(4-fluorophenyl)azetidine-1-carboxamide]
101 to 500	CC(C)(C)c1csc(N2CC(c3nc4c(cnn4C4CCCCC4)c(=O)[nH]3)C2)n1 [Example 157, 6-(1-(4-tert-Butylthiazol-2-yl)azetidin-3-yl)-1-cyclohexyl-1H-pyrazolo[3,4-d]pyrimidin-4-(5H)-one]
101 to 500	O=c1[nH]c(C2CN(c3nc4ccccc4s3)C2)nc2c1cnn2C1CCCCC1 [Example 129, 6-(1-(benzo[d]thiazol-2-yl)azetidin-3-yl)-1-cyclohexyl-1H-pyrazolo[3,4-d]pyrimidin-4(5H)-one]
101 to 500	CC(C)(C)COC(=O)N1CC(c2nc3c(cnn3C3CCCCC3)c(=O)[nH]2)C1 [Example 122, neopentyl 3-(1-cyclohexyl-4-oxo-4,5-dihydro-1H-pyrazolo[3,4-d]pyrimidin-6-yl)azetidine-1-carboxylate]
1 to 100	Cc1nn(-c2ccc(F)cc2)c2nc(C3CN(C(=O)Nc4ccccc4OC(F)F)C3)[nH]c(=O)c12 [Example 29, N-(2-(difluoromethoxy)phenyl)-3-(1-(4-fluorophenyl)-3-methyl-4-oxo-4,5-dihydro-1H-pyrazolo[3,4-d]pyrimidin-6-yl)azetidine-1-carboxamide]
1 to 100	O=C(Nc1ccc(C(F)(F)F)cc1)N1CC(c2nc3c(cnn3C3CCCCC3)c(=O)[nH]2)C1 [Example 35, 3-(1-cyclohexyl-4-oxo-4,5-dihydro-1H-pyrazolo[3,4-d]pyrimidin-6-yl)-N-(4-(trifluoromethyl)phenyl)azetidine-1-carboxamide]
1 to 100	CC(C)N1CCN(c2ccc(-c3csc(N4CC(c5nc6c(cnn6C6CCCCC6)c(=O)[nH]5)C4)n3)cc2)CC1 [Example 161, 1-Cyclohexyl-6-(1-(4-(4-(4-isopropylpiperazin-1-yl)phenyl)thiazol-2-yl)azetidin-3-yl)-1H-pyrazolo[3,4-d]pyrimidin-4-(5H)-one]
1 to 100	COc1ccc(NC(=O)N2CC(c3nc4c(cnn4C4CCCCC4)c(=O)[nH]3)C2)cc1 [Example 13, 3-(1-cyclohexyl-4-oxo-4,5-dihydro-1H-pyrazolo[3,4-d]pyrimidin-6-yl)-N-(4-methoxyphenyl)azetidine-1-carboxamide]
1 to 100	Cc1nn(C(C)(C)C)c2nc(C3CN(C(=O)NCc4ccccc4)C3)[nH]c(=O)c12 [Example 22, N-benzyl-3-(1-tert-butyl-3-methyl-4-oxo-4,5-dihydro-1H-pyrazolo[3,4-d]pyrimidin-6-yl)azetidine-1-carboxamide]
1 to 100	O=C(NC1CCCC1)N1CC(c2nc3c(cnn3C3CCCCC3)c(=O)[nH]2)C1 [Example 32, 3-(1-cyclohexyl-4-oxo-4,5-dihydro-1H-pyrazolo[3,4-d]pyrimidin-6-yl)-N-cyclopentylazetidine-1-carboxamide]
1 to 100	CS(=O)(=O)N1CCC(NC(=O)N2CC(c3nc4c(cnn4C4CCCCC4)c(=O)[nH]3)C2)CC1 [Example 40, 3-(1-cyclohexyl-4-oxo-4,5-dihydro-1H-pyrazolo[3,4-d]pyrimidin-6-yl)-N-(1-(methylsulfonyl)piperidin-4-yl)azetidine-1-carboxamide]
1 to 100	O=c1[nH]c(C2CN(c3nc(-c4ccccc4)co3)C2)nc2c1cnn2C1CCCCC1 [Example 132, 1-cyclohexyl-6-(1-(4-phenyloxazol-2-yl)azetidin-3-yl)-1H-pyrazolo[3,4-d]pyrimidin-4(5H)-one]
1 to 100	O=C(Oc1ccc(F)cc1)N1CC(c2nc3c(cnn3C3CCCCC3)c(=O)[nH]2)C1 [Example 121, 4-fluorophenyl 3-(1-cyclohexyl-4-oxo-4,5-dihydro-1H-pyrazolo[3,4-d]pyrimidin-6-yl)azetidine-1-carboxylate]
1 to 100	O=C(NCc1ccc(F)cc1)N1CC(c2nc3c(cnn3C3CCCCC3)c(=O)[nH]2)C1 [Example 30, 3-(1-cyclohexyl-4-oxo-4,5-dihydro-1H-pyrazolo[3,4-d]pyrimidin-6-yl)-N-(4-fluorobenzyl)azetidine-1-carboxamide]
